Among the test systems are HCT-116 colon; U251 CNS; LOX IMVI melanoma; OVCAR-3 ovarian; ACHN renal; SK-MEL-5 melanoma; SK-OV-3 ovarian; SK-MEL-2 melanoma; K-562 leukemia; HL-60(TB) leukemia.
Holding throughout (assay): NCI anticancer screen, dose series, 48 h

Here are results for 11 compounds from PubChem BioAssay (NCI).

“And” between values parts separate entries of the source, which are not always exact repeats. Equal entries are not always repeated.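 96-well plates; 48 h exposure; 5 concentrations. Endpoints by linear interpolation between flanking doses. Not reached: highest tested concentration assigned. Abbreviation: GI50, concentration required for 50% inhibition of growth. TGI denotes the concentration required for complete inhibition of growth.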

As to `N=c1ccn2c(n1)OC1C(OP(=O)(O)O)C(CO)OC12` (stereo unspecified), the TGI in the test with HCT-116 colon is more than 100 µM; with U251 CNS, more than 100 µM; in the test with LOX IMVI melanoma it was more than 100 µM; with OVCAR-3 ovarian it was more than 100 µM; in the test with ACHN renal, 14 µM; with SK-MEL-5 melanoma, more than 100 µM. The TGI in the test on SK-OV-3 ovarian was more than 100 µM; with SK-MEL-2 melanoma, more than 100 µM; in the test on K-562 leukemia, more than 100 µM; in the test with HL-60(TB) leukemia, 13.6 µM.

Take `NC1=NC(=O)N2CC12` (stereo unspecified): the GI50 in the test on HCT-116 colon is 73.9 µM; in the test on U251 CNS, 154 µM; in the test on LOX IMVI melanoma, 38.2 µM and 61.2 µM; in the test on OVCAR-3 ovarian it was 171 µM; in the test with ACHN renal it was 347 µM; in the test with SK-MEL-5 melanoma, 638 µM. For the same compound, the GI50 in the test with SK-OV-3 ovarian is 369 µM; in the test on SK-MEL-2 melanoma it was 63.3 µM; in the test with K-562 leukemia it was 38.9 µM; in the test on HL-60(TB) leukemia it was 13.7 µM. The TGI in the test with HCT-116 colon is 166 µM; in the test with U251 CNS it was > 100 µM and 620 µM; in the test on LOX IMVI melanoma it was > 100 µM and 134 µM; with OVCAR-3 ovarian it was > 100 µM and 519 µM; with ACHN renal, > 100 µM and 1020 µM; with SK-MEL-5 melanoma, > 100 µM and 1450 µM. Besides, the TGI with SK-OV-3 ovarian is > 100 µM and 991 µM; with SK-MEL-2 melanoma it was > 100 µM and 329 µM; in the test with K-562 leukemia it was more than 100 µM.

With `O=C(O)/C(Cl)=C(\Cl)Nc1cccc(C(F)(F)F)c1`, the TGI with U251 CNS, in the test on LOX IMVI melanoma, in the test on OVCAR-3 ovarian, in the test with ACHN renal, in the test on SK-OV-3 ovarian and with K-562 leukemia was more than 100 µM each time. In addition, in the test on HL-60(TB) leukemia, the TGI was more than 100 µM.

Take `CC[O-].CC[O-].[O-]c1ccccc1C=Nc1ccccc1.[O-]c1ccccc1C=Nc1ccccc1.[Ti+4]`: the GI50 in the test with HCT-116 colon was 31.8 µM; with U251 CNS it was more than 100 µM; with LOX IMVI melanoma, 1.92 µM; in the test with OVCAR-3 ovarian, more than 100 µM; in the test on ACHN renal, 23.8 µM; with SK-MEL-5 melanoma, 45.5 µM. Further, the values for the GI50 in the test on SK-OV-3 ovarian, in the test on K-562 leukemia and in the test on HL-60(TB) leukemia were more than 100 µM, 0.789 µM and more than 100 µM, respectively. The TGI with HCT-116 colon, with U251 CNS, with LOX IMVI melanoma, in the test on OVCAR-3 ovarian, with ACHN renal and in the test on SK-MEL-5 melanoma was more than 100 µM throughout. In addition, the TGI with SK-OV-3 ovarian, in the test on K-562 leukemia and in the test with HL-60(TB) leukemia was more than 100 µM in each case.

Regarding `CN1CCC23c4c5ccc(O)c4OC2C(=NN=C2CCC4(O)C6Cc7ccc(O)c8c7C4(CCN6C)C2O8)CCC3(O)C1C5` (stereo unspecified), the TGI with U251 CNS, in the test with LOX IMVI melanoma, with OVCAR-3 ovarian, in the test with ACHN renal, in the test with SK-MEL-5 melanoma and in the test on SK-OV-3 ovarian was more than 100 µM each time. Further, the TGI with SK-MEL-2 melanoma, in the test with K-562 leukemia and in the test with HL-60(TB) leukemia was more than 100 µM in each case.

As for `C/C(=N\O)c1sc(-n2nc(-c3ccccc3)cc2-c2ccccc2)nc1C`, the TGI in the test with HCT-116 colon is 17.1 µM; in the test on U251 CNS, 16.3 µM; in the test with LOX IMVI melanoma it was 18 µM; in the test on OVCAR-3 ovarian it was more than 31.6 µM; with ACHN renal, 19.6 µM; in the test with SK-MEL-5 melanoma, 17.3 µM. In addition, the values for the TGI with SK-MEL-2 melanoma, in the test with K-562 leukemia and in the test on HL-60(TB) leukemia were more than 65.6 µM, 24.6 µM and 23 µM, respectively.

Turning to `O=c1[nH]cnc2c(C3OC(CO)C(O)C3O)[nH]nc12` (stereo unspecified), the TGI in the test with HCT-116 colon was more than 100 µM; in the test with U251 CNS it was more than 100 µM; with LOX IMVI melanoma it was more than 100 µM; in the test with OVCAR-3 ovarian, 53.5 µM; in the test on ACHN renal it was more than 100 µM; in the test on SK-MEL-5 melanoma, more than 100 µM. For the same compound, the TGI with SK-OV-3 ovarian was 28.3 µM; in the test with K-562 leukemia it was more than 100 µM; in the test on HL-60(TB) leukemia, more than 100 µM.

On to `O=C1C=C(Nc2ccccc2)c2ncccc2C1=O`, for which the GI50 in the test with HCT-116 colon is 0.291 µM; in the test on U251 CNS, 0.348 µM; with LOX IMVI melanoma, 0.208 µM; in the test on OVCAR-3 ovarian, 0.28 µM; in the test with ACHN renal, 0.349 µM; in the test on SK-MEL-5 melanoma, 0.177 µM. The results for the GI50 in the test on SK-OV-3 ovarian, in the test on SK-MEL-2 melanoma and in the test with HL-60(TB) leukemia were 1.75 µM, 1.91 µM and 0.842 µM, respectively. Besides, the TGI in the test with HCT-116 colon was determined as 0.883 µM; with U251 CNS it was 1.2 µM; in the test with LOX IMVI melanoma, 0.514 µM; in the test with OVCAR-3 ovarian, 0.825 µM; with ACHN renal it was 1.22 µM; with SK-MEL-5 melanoma, 0.318 µM. Besides, the TGI in the test on SK-OV-3 ovarian was found to be 3.16 µM; in the test with SK-MEL-2 melanoma, 3.67 µM; in the test on HL-60(TB) leukemia, 3.84 µM.

Take `COc1ccccc1/C=C/C(=O)c1sc(-c2cccnc2)nc1C`: the TGI in the test on U251 CNS, in the test on LOX IMVI melanoma, in the test on OVCAR-3 ovarian, in the test with ACHN renal, in the test with SK-MEL-5 melanoma and in the test on SK-OV-3 ovarian was more than 100 µM each time. Further, the TGI in the test on SK-MEL-2 melanoma, in the test on K-562 leukemia and with HL-60(TB) leukemia was more than 100 µM throughout.

In the case of `O=C(O)C1C2C=CC(O2)C1C(=O)Nc1ccccc1` (stereo unspecified), the TGI in the test on HCT-116 colon, with U251 CNS, in the test on LOX IMVI melanoma, in the test on OVCAR-3 ovarian, in the test with ACHN renal and in the test on SK-MEL-5 melanoma was more than 100 µM throughout. Also, the TGI in the test with SK-OV-3 ovarian, with SK-MEL-2 melanoma and in the test with K-562 leukemia was more than 100 µM each time.

Regarding `C#C[C@@]1(O)[C@@H](CO)O[C@@H](n2cc(Cl)c3c(N)ncnc32)[C@@H]1O`, the GI50 is 0.0221 µM in the test on HCT-116 colon; 0.0541 µM with LOX IMVI melanoma; 0.233 µM with OVCAR-3 ovarian; 0.143 µM with SK-OV-3 ovarian; 0.146 µM with SK-MEL-2 melanoma; 0.0993 µM in the test on K-562 leukemia. Also, the GI50 in the test on HL-60(TB) leukemia was 0.0341 µM. The TGI in the test on HCT-116 colon is more than 100 µM; with LOX IMVI melanoma it was 0.253 µM; in the test on OVCAR-3 ovarian it was 1.79 µM; with SK-OV-3 ovarian it was 0.517 µM; in the test with SK-MEL-2 melanoma it was 0.481 µM; in the test on K-562 leukemia, more than 100 µM. The same compound registered a TGI with HL-60(TB) leukemia of 0.197 µM.
